# pEC50, pIC50: −log10 of the molar value. Where two headings read alike, the source gives them in different places.
# Tests used:
# [1] = biological target: T1, HCV NS3/4A protease complex, BMS strain (UniProt P27958, C1454S/C1711G, species not given); assay: FRET peptide assay to monitor HCV NS3/4A proteolytic activity (BMS strain); type: biochemical, HCV genotype 1a; conditions: read-out: IC50 Range, HCV NS3/4A enzyme assay
# T1 construct: other: HCV NS3/4A enzyme assay; class symbols; numeric values; fused on or other part: three-lysine solubilising tail at the C-terminus of NS4A; purified on Ni-NTA from the pET21b vector (His tag implied)
# Text: HCV NS3 protease complexes, derived from the BMS strain, H77 strain or J4L6S strain, were generated, as described below. These purified recombinant proteins were generated for use in a homogeneous assay (see below) to provide an indication of how effective compounds of the present disclosure would be in inhibiting HCV NS3 proteolytic activity.
# Serum from an HCV-infected patient was obtained from Dr. T. Wright, San Francisco Hospital. An engineered full-length cDNA (compliment deoxyribonucleic acid) template of the HCV genome (BMS strain) was constructed from DNA fragments obtained by reverse transcription-PCR (RT-PCR) of serum RNA (ribonucleic acid) and using primers selected on the basis of homology between other genotype 1a strains. From the determination of the entire genome sequence, a genotype 1a was assigned to the HCV isolate according to the classification of Simmonds et al. (See P Simmonds, K A Rose, S Graham, S W Chan, F McOmish, B C Dow, E A Follett, P L Yap and H Marsden, J. Clin. Microbiol., 31(6), 1493-1503 (1993)). […] The infectious clones, H77 (1a genotype) and J4L6S (1b genotype) were obtained from R. Purcell (NIH) and the sequences are published in Genbank (AAB67036, see Yanagi, M., Purcell, R. H., Emerson, S. U. and Buldi, J. Proc. Natl. Acad. Sci. U.S.A. 94(16),8738-8743 (1997); AF054247, see Yanagi, M., St Claire, M., Shapiro, M., Emerson, S. U., Purcell, R. H. and Bukh, J, Virology 244 (1), 161-172. (1998)).
# NS3/4A protease complex-containing fractions were pooled and loaded on a desalting column Superdex-S200 pre-equilibrated with buffer D (25 mM HEPES, pH 7.5, 20% glycerol, 300 mM NaCl, 0.2% TritonX-100, 10 mM βMB). Sample was loaded at a flow rate of 1 mL/min. NS3/4A protease complex-containing fractions were pooled and concentrated to approximately 0.5 mg/ml. The purity of the NS3/4A protease complexes, derived from the BMS, H77 and J4L6S strains, were judged to be greater than 90% by SDS-PAGE and mass spectrometry analyses. The enzyme was stored at −80° C., thawed on ice and diluted prior to use in assay buffer.
# The purpose of this in vitro assay was to measure the inhibition of HCV NS3 protease complexes, derived from the BMS strain, H77 strain or J4L6S strain, as described above, by compounds of the present disclosure. This assay provides an indication of how effective compounds of the present disclosure would be in inhibiting HCV NS3 proteolytic activity.
# In order to monitor HCV NS3/4A protease activity, an NS3/4A peptide substrate was used. The substrate was RET S1 (Resonance Energy Transfer Depsipeptide Substrate; AnaSpec, Inc. cat #22991)(FRET peptide), described by Taliani et al. in Anal. Biochem. 240(2):60-67 (1996). The sequence of this peptide is loosely based on the NS4A/NS4B natural cleavage site for the HCV NS3 protease except there is an ester linkage rather than an amide bond at the cleavage site. The peptide also contains a fluorescence donor, EDANS, near one end of the peptide and an acceptor, DABCYL, near the other end. The fluorescence of the peptide is quenched by […] resonance energy transfer (RET) between the donor and the acceptor, but as the NS3 protease cleaves the peptide the products are released from RET quenching and the fluorescence of the donor becomes apparent.
# The peptide substrate was incubated with one of the three recombinant NS3/4A protease complexes, in the absence or presence of a compound of the present disclosure. The inhibitory effects of a compound were determined by monitoring the formation of fluorescent reaction product in real time using a Cytofluor Series 4000.
# Assay buffer: 50 mM HEPES, pH 7.5; 0.15 M NaCl; 0.1% Triton; 15% Glycerol; 10 mM βME. Substrate: 2 μM final concentration (from a 2 mM stock solution in DMSO stored at −20° C.). HCV NS3/4A protease type 1a (1b), 2-3 nM final concentration (from a 5 μM stock solution in 25 mM HEPES, pH 7.5, 20% glycerol, 300 mM NaCl, 0.2% Triton-X100, 10 mM βME). […]
# [2] = test system: HCV replicon in HUH-7 cells; assay: HCV replicon FRET assay; type: cell-based, HCV strain 1b; conditions: Hepatitis C virus
# Text: An HCV replicon whole cell system was established as described by Lohmann V, Korner F, Koch J, Herian U, Theilmann L, Bartenschlager R., Science 285(5424):110-3 (1999). This system enabled us to evaluate the effects of our HCV Protease compounds on HCV RNA replication. Briefly, using the HCV strain 1b sequence described in the Lohmann paper (Assession number:AJ238799), an HCV cDNA was synthesized by Operon Technologies, Inc. (Alameda, Calif.), and the full-length replicon was then assembled in plasmid pGem9zf(+) (Promega, Madison, Wis.) using standard molecular biology techniques. The replicon consists of (i) the HCV 5′ UTR fused to the first 12 amino acids of the capsid protein, (ii) the neomycin phosphotransferase gene (neo), (iii) the IRES from encephalomyocarditis virus (EMCV), and (iv) HCV NS3 to NS5B genes and the HCV 3′ UTR. Plasmid DNAs were linearized with ScaI and RNA transcripts were synthesized in vitro using the T7 MegaScript transcription kit (Ambion, Austin, Tex.) according to manufacturer's directions. In vitro transcripts of the eDNA were transfected into the human hepatoma cell line, HUH-7. […] Resulting cell lines were characterized for positive and negative strand RNA production and protein production over time.
# The HCV replicon FRET assay was developed to monitor the inhibitory effects of compounds described in the disclosure on HCV viral replication. HUH-7 cells, constitutively expressing the HCV replicon, were grown in Dulbecco's Modified Eagle Media (DMEM) (Gibco-BRL) containing 10% Fetal calf serum (FCS) (Sigma) and 1 mg/ml G418 (Gibco-BRL). Cells were seeded the night before (1.5×10^4 cells/well) in 96-well tissue-culture sterile plates. Compound and no compound controls were prepared in DMEM containing 4% FCS, 1:100 Penicillin/Streptomysin (Gibco-BRL), 1:100 L-glutamine and 5% DMSO in the dilution plate (0.5% DMSO final concentration in the assay). Compound/DMSO mixes were added to the cells and incubated for 4 days at 37° C. After 4 days, cells were first assessed for cytotoxicity using alamar Blue (Trek Diagnotstic Systems) for a CC50 reading. The toxicity of compound (CC50) was determined by adding 1/10th volume of alamar Blue to the media incubating the cells. After 4 h, the fluorescence signal from each well was read, with an excitation wavelength at 530 nm and an emission wavelength of 580 nm, using the Cytofluor Series 4000 (Perspective Biosystems). Plates were then rinsed thoroughly with Phosphate-Buffered Saline (PBS) (3 times 150 μl).
SMILES,pIC50 ([1]; class symbols),"pEC50 ([2]; Huh-7, read-out: EC50 Range)",pIC50 ([1]; numeric values),"pEC50 ([2]; Huh-7, HCV replicon cell assay, numeric values, read-out: EC50 Range)"
C=C[C@@H]1C[C@]1(NC(=O)[C@@H]1C[C@@H](Oc2ncc(OC)c3ccc(Cl)cc23)CN1C(=O)[C@@H](Nc1nc(-c2ccc3ccccc3c2)cs1)C(C)(C)C)C(=O)NS(=O)(=O)C1CC1 [Example 11],7.70 to 9.00,7.30 to 9.00,,
C=C[C@@H]1C[C@]1(NC(=O)[C@@H]1C[C@@H](Oc2ncc(OC)c3ccc(Cl)cc23)CN1C(=O)[C@@H](Nc1nc(-c2ccccc2)c(-c2ccccc2)s1)C(C)(C)C)C(=O)NS(=O)(=O)C1CC1 [Example 45],7.70 to 9.00,7.30 to 9.00,,
C=C[C@@H]1C[C@]1(NC(=O)[C@@H]1C[C@@H](Oc2ncc(OC)c3ccc(Cl)cc23)CN1C(=O)[C@@H](Nc1nc(-c2cc(C)c(Cl)cc2F)cs1)C(C)(C)C)C(=O)NS(=O)(=O)C1CC1 [Example 92],7.70 to 9.00,7.30 to 9.00,,
C=C[C@@H]1C[C@]1(NC(=O)[C@@H]1C[C@@H](Oc2ncc(OC)c3ccc(Cl)cc23)CN1C(=O)[C@@H](Nc1nc(-c2ccc(N3CCOCC3)cc2)cs1)C(C)(C)C)C(=O)NS(=O)(=O)C1CC1 [Example 41],7.70 to 9.00,7.30 to 9.00,,
C=C[C@@H]1C[C@]1(NC(=O)[C@@H]1C[C@@H](Oc2ncc(OC)c3ccc(Cl)cc23)CN1C(=O)[C@@H](Nc1nc(-c2ccc(Br)cc2)cs1)C(C)(C)C)C(=O)NS(=O)(=O)C1CC1 [Example 31],7.70 to 9.00,7.30 to 9.00,,
C=C[C@@H]1C[C@]1(NC(=O)[C@@H]1C[C@@H](Oc2ncc(OC)c3ccc(Cl)cc23)CN1C(=O)[C@@H](Nc1nc(-c2ccc(F)cc2)cs1)C(C)(C)C)C(=O)NS(=O)(=O)C1CC1 [Example 32],7.70 to 9.00,7.30 to 9.00,,
C=C[C@@H]1C[C@]1(NC(=O)[C@@H]1C[C@@H](Oc2cc(-c3ccccc3)nc3cc(OC)ccc23)CN1C(=O)[C@@H](Nc1nc(-c2ccc(F)cc2)cs1)C(C)(C)C)C(=O)NS(=O)(=O)C1CC1 [Example 5],7.70 to 9.00,7.30 to 9.00,,
"C=C[C@@H]1C[C@]1(NC(=O)[C@@H]1C[C@@H](Oc2ncc(OC)c3ccc(Cl)cc23)CN1C(=O)C(Nc1ccc(-c2ccccc2)c(OC)c1)C(C)(C)C)C(=O)NS(=O)(=O)C1CC1 (single isomer, unassigned) [Example 18A]",,,7.27,7.11
C=C[C@@H]1C[C@]1(NC(=O)[C@@H]1C[C@@H](Oc2ncc(OC)c3ccc(Cl)cc23)CN1C(=O)[C@@H](Nc1nc(-c2ccc(C(=O)O)cc2)cs1)C(C)(C)C)C(=O)NS(=O)(=O)C1CC1 [Example 46],7.70 to 9.00,7.30 to 9.00,,
C=C[C@@H]1C[C@]1(NC(=O)[C@@H]1C[C@@H](Oc2ncc(OC)c3ccc(Cl)cc23)CN1C(=O)[C@@H](Nc1nc(-c2cccc(Cl)c2)cs1)C(C)(C)C)C(=O)NS(=O)(=O)C1CC1 [Example 48],7.70 to 9.00,7.30 to 9.00,,
C=C[C@@H]1C[C@]1(NC(=O)[C@@H]1C[C@@H](Oc2ncc(OC)c3ccc(Cl)cc23)CN1C(=O)[C@@H](Nc1nc(-c2ccc(Cl)c(Cl)c2)cs1)C(C)(C)C)C(=O)NS(=O)(=O)C1CC1 [Example 29],7.70 to 9.00,7.30 to 9.00,,
C=C[C@@H]1C[C@]1(NC(=O)[C@@H]1C[C@@H](Oc2ncc(OC)c3ccc(Cl)cc23)CN1C(=O)[C@@H](Nc1nc(-c2cc(-c3ccccc3)no2)cs1)C(C)(C)C)C(=O)NS(=O)(=O)C1CC1 [Example 85],7.70 to 9.00,7.30 to 9.00,,
C=C[C@@H]1C[C@]1(NC(=O)[C@@H]1C[C@@H](Oc2ncc(OC)c3ccc(Cl)cc23)CN1C(=O)[C@@H](Nc1nc(-c2cc(C(F)(F)F)cc(C(F)(F)F)c2)cs1)C(C)(C)C)C(=O)NS(=O)(=O)C1CC1 [Example 22],7.70 to 9.00,7.30 to 9.00,,
C=C[C@@H]1C[C@]1(NC(=O)[C@@H]1C[C@@H](Oc2ncc(OC)c3ccc(Cl)cc23)CN1C(=O)[C@@H](Nc1nc(-c2cc(F)c(F)cc2F)cs1)C(C)(C)C)C(=O)NS(=O)(=O)C1CC1 [Example 81],7.70 to 9.00,,,
C=C[C@@H]1C[C@]1(NC(=O)[C@@H]1C[C@@H](Oc2ncc(OC)c3ccc(Cl)cc23)CN1C(=O)[C@@H](Nc1nc(-c2cc(F)cc(F)c2)cs1)C(C)(C)C)C(=O)NS(=O)(=O)C1CC1 [Example 66],7.70 to 9.00,,,
C=C[C@@H]1C[C@]1(NC(=O)[C@@H]1C[C@@H](Oc2ncc(OC)c3ccc(Cl)cc23)CN1C(=O)[C@@H](Nc1nc(-c2ccc(OC)c(F)c2)cs1)C(C)(C)C)C(=O)NS(=O)(=O)C1CC1 [Example 64],7.70 to 9.00,,,
C=C[C@@H]1C[C@]1(NC(=O)[C@@H]1C[C@@H](Oc2ccc(OC)c3ccc(Cl)cc23)CN1C(=O)[C@@H](Nc1nc(-c2ccc(F)c(C(F)(F)F)c2)cs1)C(C)(C)C)C(=O)NS(=O)(=O)C1CC1 [Example 74],,,8.70,
C=C[C@@H]1C[C@]1(NC(=O)[C@@H]1C[C@@H](Oc2ncc(OC)c3ccc(Cl)cc23)CN1C(=O)[C@@H](Nc1nc(-c2c(F)cccc2C(F)(F)F)cs1)C(C)(C)C)C(=O)NS(=O)(=O)C1CC1 [Example 71],6.70 to 7.70,,,
C=C[C@@H]1C[C@]1(NC(=O)[C@@H]1C[C@@H](Oc2ncc(OC)c3ccc(Cl)cc23)CN1C(=O)[C@@H](Nc1nc(-c2cc(C)ccc2OC(F)F)cs1)C(C)(C)C)C(=O)NS(=O)(=O)C1CC1 [Example 78],7.70 to 9.00,,,
